Test results as given in the supplement of paper PMC10307832.

Assays:
Assay in all cases: relative viability (nuclei count vs DMSO), 5 days (fraction); higher = more cells survive
Everolimus + Vorinostat = compound: CO[C@H]1C[C@@H]2CC[C@@H](C)[C@@](O)(O2)C(=O)C(=O)N2CCCC[C@H]2C(=O)O[C@H]([C@H](C)C[C@@H]2CC[C@@H](OCCO)[C@H](OC)C2)CC(=O)[C@H](C)/C=C(\C)[C@@H](O)[C@@H](OC)C(=O)[C@H](C)C[C@H](C)/C=C/C=C/C=C/1C [Everolimus] + O=C(CCCCCCC(=O)Nc1ccccc1)NO [Vorinostat] (partner 1 µM)
Method in brief: (§1)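 For relative viability, nuclei counts in treated wells were divided by those in vehicle wells. Lung cancer cell lines had been pin-tool dosed in 1536-well plates the day after seeding and cultured for 5 days, then fixed and stained in one step (final 0.05% Triton X-100, 1% formaldehyde, 1 ug/ml Hoechst) and imaged at 4×. Doses were one drug alone or a fixed anchor-drug dose plus five library-drug doses (not always all listed) in √10 steps, and values are duplicate-plate medians.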

Everolimus + AZD7762 = compound: CO[C@H]1C[C@@H]2CC[C@@H](C)[C@@](O)(O2)C(=O)C(=O)N2CCCC[C@H]2C(=O)O[C@H]([C@H](C)C[C@@H]2CC[C@@H](OCCO)[C@H](OC)C2)CC(=O)[C@H](C)/C=C(\C)[C@@H](O)[C@@H](OC)C(=O)[C@H](C)C[C@H](C)/C=C/C=C/C=C/1C [Everolimus] + NC(=O)Nc1cc(-c2cccc(F)c2)sc1C(=O)N[C@H]1CCCNC1 [AZD7762] (partner 0.2 µM)
Method in brief: as §1

Everolimus + Crizotinib = compound: CO[C@H]1C[C@@H]2CC[C@@H](C)[C@@](O)(O2)C(=O)C(=O)N2CCCC[C@H]2C(=O)O[C@H]([C@H](C)C[C@@H]2CC[C@@H](OCCO)[C@H](OC)C2)CC(=O)[C@H](C)/C=C(\C)[C@@H](O)[C@@H](OC)C(=O)[C@H](C)C[C@H](C)/C=C/C=C/C=C/1C [Everolimus] + C[C@@H](Oc1cc(-c2cnn(C3CCNCC3)c2)cnc1N)c1c(Cl)ccc(F)c1Cl [Crizotinib] (partner 1 µM)
Method in brief: as §1

Everolimus + Palbociclib = compound: CO[C@H]1C[C@@H]2CC[C@@H](C)[C@@](O)(O2)C(=O)C(=O)N2CCCC[C@H]2C(=O)O[C@H]([C@H](C)C[C@@H]2CC[C@@H](OCCO)[C@H](OC)C2)CC(=O)[C@H](C)/C=C(\C)[C@@H](O)[C@@H](OC)C(=O)[C@H](C)C[C@H](C)/C=C/C=C/C=C/1C [Everolimus] + CC(=O)c1c(C)c2cnc(Nc3ccc(N4CCNCC4)cn3)nc2n(C2CCCC2)c1=O [Palbociclib] (partner 0.5 µM)
Method in brief: as §1

Row | Cell Line | relative viability (Everolimus + Vorinostat; first compound 0.01 µM) | relative viability (Everolimus + Vorinostat; first compound 0.03162 µM) | relative viability (Everolimus + Vorinostat; first compound 0.1 µM) | relative viability (Everolimus + Vorinostat; first compound 0.3162 µM) | relative viability (Everolimus + Vorinostat; first compound 1 µM) | relative viability (Everolimus + AZD7762; first compound 0.01 µM) | relative viability (Everolimus + AZD7762; first compound 0.03162 µM) | relative viability (Everolimus + AZD7762; first compound 0.1 µM) | relative viability (Everolimus + AZD7762; first compound 0.3162 µM) | relative viability (Everolimus + AZD7762; first compound 1 µM) | relative viability (Everolimus + Crizotinib; first compound 0.01 µM) | relative viability (Everolimus + Crizotinib; first compound 0.03162 µM) | relative viability (Everolimus + Crizotinib; first compound 0.1 µM) | relative viability (Everolimus + Crizotinib; first compound 0.3162 µM) | relative viability (Everolimus + Crizotinib; first compound 1 µM) | relative viability (Everolimus + Palbociclib; first compound 0.01 µM) | relative viability (Everolimus + Palbociclib; first compound 0.03162 µM) | relative viability (Everolimus + Palbociclib; first compound 0.1 µM) | relative viability (Everolimus + Palbociclib; first compound 0.3162 µM) | relative viability (Everolimus + Palbociclib; first compound 1 µM)
1 | NCI-H1666 | 1.04 | 1.08 | 1.04 | 1.05 | 0.92 | 0.855 | 0.84 | 0.821 | 0.899 | 0.908 | 0.878 | 0.776 | 0.629 | 0.877 | 0.654 | 0.567 | 0.642 | 0.599 | 0.693 | 0.631
2 | NCI-H1734 | 0.613 | 0.606 | 0.505 | 0.422 | 0.563 | 0.336 | 0.365 | 0.291 | 0.283 | 0.313 | 0.501 | 0.48 | 0.401 | 0.378 | 0.449 | 0.285 | 0.241 | 0.288 | 0.251 | 0.258
3 | NCI-H1755 | 0.616 | 0.599 | 0.61 | 0.568 | 0.602 | 0.379 | 0.39 | 0.382 | 0.344 | 0.345 | 0.777 | 0.715 | 0.679 | 0.6 | 0.554 | 0.407 | 0.395 | 0.378 | 0.361 | 0.356
4 | NCI-H1915 | 0.389 | 0.387 | 0.431 | 0.37 | 0.364 | 0.632 | 0.567 | 0.561 | 0.587 | 0.554 | 0.849 | 0.784 | 0.798 | 0.711 | 0.753 | 0.398 | 0.347 | 0.316 | 0.378 | 0.334
5 | NCI-H1944 | 0.373 | 0.376 | 0.315 | 0.44 | 0.336 | 0.341 | 0.437 | 0.354 | 0.325 | 0.306 | 0.82 | 0.878 | 0.751 | 0.827 | 0.697 | 0.214 | 0.195 | 0.196 | 0.23 | 0.202
6 | NCI-H1975 | 0.599 | 0.587 | 0.608 | 0.565 | 0.542 | 0.591 | 0.571 | 0.533 | 0.433 | 0.531 | 0.924 | 0.774 | 0.921 | 0.876 | 0.783 | 0.481 | 0.398 | 0.524 | 0.454 | 0.358
7 | NCI-H1993 | 0.429 | 0.488 | 0.438 | 0.377 | 0.508 | 0.461 | 0.505 | 0.371 | 0.472 | 0.439 | 0.688 | 0.659 | 0.702 | 0.642 | 0.705 | 0.495 | 0.436 | 0.489 | 0.493 | 0.408
8 | NCI-H2085 | 0.636 | 0.582 | 0.497 | 0.576 | 0.541 | 0.808 | 0.753 | 0.45 | 0.654 | 0.481 | 0.775 | 0.719 | 0.64 | 0.655 | 0.496 | 0.413 | 0.362 | 0.347 | 0.335 | 0.284
9 | NCI-H2087 | 0.321 | 0.5 | 0.443 | 0.46 | 0.532 | 1.25 | 1.51 | 1.2 | 1.36 | 1.35 | 1.18 | 1.01 | 0.783 | 0.885 | 0.922 | 0.235 | 0.195 | 0.163 | 0.217 | 0.245
10 | NCI-H2126 | 0.546 | 0.482 | 0.407 | 0.553 | 0.497 | 0.688 | 0.598 | 0.629 | 0.688 | 0.703 | 0.755 | 0.736 | 0.671 | 0.721 | 0.665 | 0.384 | 0.314 | 0.325 | 0.338 | 0.345
11 | NCI-H2170 | 0.326 | 0.314 | 0.27 | 0.309 | 0.338 | 0.367 | 0.403 | 0.334 | 0.374 | 0.401 | 0.59 | 0.587 | 0.455 | 0.537 | 0.49 | 0.195 | 0.187 | 0.162 | 0.16 | 0.186
12 | NCI-H2347 | 0.565 | 0.556 | 0.455 | 0.419 | 0.551 | 0.651 | 0.618 | 0.576 | 0.622 | 0.439 | 0.683 | 0.568 | 0.554 | 0.546 | 0.58 | 0.386 | 0.403 | 0.401 | 0.424 | 0.373
13 | NCI-H2405 | 0.696 | 0.679 | 0.652 | 0.606 | 0.75 | 0.655 | 0.652 | 0.657 | 0.637 | 0.662 | 0.792 | 0.693 | 0.683 | 0.696 | 0.659 | 0.336 | 0.351 | 0.332 | 0.381 | 0.358
14 | NCI-H3122 | 0.678 | 0.598 | 0.607 | 0.369 | 0.669 | 0.75 | 0.765 | 0.711 | 0.629 | 0.725 | 0.219 | 0.246 | 0.238 | 0.194 | 0.192 | 0.166 | 0.178 | 0.169 | 0.17 | 0.133
15 | PC-3 [JPC-3] | 0.693 | 0.498 | 0.54 | – | 0.566 | 0.58 | 0.499 | 0.615 | – | 0.647 | 1.02 | 0.992 | 0.911 | 0.96 | 1.02 | 0.579 | 0.497 | 0.548 | – | 0.545
16 | PC-14 | 0.379 | 0.576 | 0.486 | 0.528 | 0.421 | 0.201 | 0.204 | 0.171 | 0.145 | 0.163 | 0.983 | 0.936 | 0.942 | 0.908 | 0.741 | 0.43 | 0.368 | 0.336 | 0.301 | 0.295
17 | RERF-LC-KJ | 0.552 | 0.461 | 0.446 | 0.478 | 0.49 | 0.566 | 0.415 | 0.462 | 0.507 | 0.598 | 0.804 | 0.627 | 0.683 | 0.667 | 0.567 | 0.88 | 0.674 | 0.644 | 0.588 | 0.511
